Experiment: Clinical pharmacokinetic study (RUN-001): vortioxetine 5 mg once daily for 29 days, then 28 days washout, obese vs normal-weight subjects
Format: in vivo, human
Conditions: both, human, in vivo
Procedure: To test if the obese patients would require different washout guidelines for preventing serotonin syndrome, 16 obese subjects (BMI≥35) and 13 normal subjects (BMI<25) completed a clinical trial where they were administered daily with low doses (5 mg/day) of vortioxetine for 29 days in a controlled study. All subjects were subsequently tracked for 28 days after discontinuing vortioxetine on day 29. Blood samples were collected and processed according to standard techniques.
The normal-weight control group consisted of healthy male and female volunteers aged 18 to 45 years. Their body mass index (BMI) values fell in the range of […]. […] Normal weight and obese subjects were matched as closely as possible for gender and age.
CYP2D6 genotype status was determined from whole blood samples drawn from each subject. Known alleles of CYP2D6 were tested for, as well as the presence of gene duplications (LabCorp, Inc.). CYP2D6 metabolizer status was categorized as ultra-rapid, extensive, intermediate, or poor. Ultra-rapid and poor metabolizers were not included in the study.
All subjects received vortioxetine, 5 mg once daily in the morning, for 29 days. The first dose was on Day 1, and the last dose was on Day 29. Blood sampling continued for another 28 days after the last dose, through Day 57.
Subjects spent 12 hours in the study unit on Day 1 (first dose of vortioxetine) and Day 29 (last dose of vortioxetine). On those two study days, venous blood samples (7 mL each) were drawn prior to the dose of vortioxetine, and at 1, 2, 4, 6, 8, 10, and 12 hours after dosage.
During the 29-day period of daily vortioxetine administration, subjects returned to the study unit in the morning of the following study days: 2, 3, 5, 8, 10, 12, 15, 17, 19, 22, 24, 26, and 29. At each visit, a single venous blood sample (7 mL) was drawn before the daily dose of vortioxetine. Subjects underwent a brief interview to assess subjective effects and possible adverse events. Subjects were then discharged until the next scheduled visit. They were provided with vortioxetine doses sufficient for daily morning administration until the next visit. No more than 2 consecutive doses of vortioxetine were taken on an outpatient basis.
On Day 29 (the final dose of vortioxetine), subjects spent 12 hours in the study unit as described above. They returned to the study unit for a single blood sample on the mornings of the following Days: 30, 31, 33, 36, 38, 40, 43, 45, 47, 50, 52, 54, and 57.
Plasma concentrations of vortioxetine were determined by liquid chromatography—mass spectrometry using a Shimadzu HPLC system coupled to a Sciex API-4000 mass spectrometer.
The internal standard (vortioxetine-d8) was added to calibration standards, quality control samples, and unknown study samples. All samples were extracted with methyl tert-butyl ether. The organic phase was separated and evaporated to dryness; the reconstituted extract was injected into the HPLC system. The HPLC column was a Unison UK-C18, 50 mm×2 mm, 3 micron particle size. The mobile phase consisted of an organic component (0.1% formic acid in acetonitrile) and an aqueous component (0.1% formic acid and 2 mM ammonium acetate in water). This was delivered in gradient mode at a net flow rate of 0.4 mL/min, with the organic fraction varying from 40% to 96%. m/z monitored were: 299.1/150.1 for vortioxetine, and 307.1/153 for vortioxetine-d8. The limit of quantitation was 0.1 ng/mL. […] All samples from a given study subject were extracted and analyzed at the same time using the same calibration standards.
Based on the clinical trials discussed above, several equations were derived which allow an individual to calculate the washout period (i.e., the time between stopping vortioxetine and initiating treatment with an MAOI). Data points to consisted of pre-dose plasma vortioxetine concentration (C) on each study day (t), both during (Days 1-29) and after (Days 30-57) the period of vortioxetine administration. […]

Compound: CC[C@@H]([C@H](C)O)n1ncn(-c2ccc(N3CCN(c4ccc(OC[C@@H]5CO[C@@](Cn6cncn6)(c6ccc(F)cc6F)C5)cc4)CC3)cc2)c1=O [posaconazole]
- elimination half-life: 78.2 h

Reference: patent US12508261B2, “Methods of treating depression with vortioxetine” (Rundle Research LLC, priority 2017, dated 2025)
